Reference: paper PMC10065799, “High-throughput profiling of sequence recognition by tyrosine kinases and SH2 domains using bacterial peptide display” (eLife, 2023)
Square brackets hold non-standard residues; d marks the D form. pY = N[C@@H](Cc1ccc(OP(=O)(O)O)cc1)C(=O)O

T1: c-Abl kinase domain (Mus musculus, UniProt P00520)
T1 sequence (P00520 242-493 limits assumed): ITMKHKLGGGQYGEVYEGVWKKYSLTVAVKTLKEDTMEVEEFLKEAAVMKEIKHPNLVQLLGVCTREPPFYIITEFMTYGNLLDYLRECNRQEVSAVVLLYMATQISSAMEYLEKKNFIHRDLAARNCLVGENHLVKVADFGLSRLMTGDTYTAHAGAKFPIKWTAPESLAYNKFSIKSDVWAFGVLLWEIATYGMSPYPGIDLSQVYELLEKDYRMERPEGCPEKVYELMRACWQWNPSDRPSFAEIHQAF


Key:
Fer kinase domain = experiment: pTyr-Var library bacterial peptide display kinase screen (enrichment scores); type: biochemical, mouse; conditions: sheet "Fer";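 note: log2 fold change in enrichment of variant over reference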
EPHB2 kinase domain = experiment: as above; type: biochemical, human; conditions: sheet EPHB2
c-Src kinase domain [1] = molecular target: T2, c-Src kinase domain (Homo sapiens, UniProt P12931); experiment: as above; type: biochemical; conditions: sheet "Src"
EPHB1 kinase domain = experiment: as above; type: biochemical, human; conditions: for Screen: sheet EPHB1, effect of the variant peptide relative to its reference peptide in the pTyr-Var library screen (enrichment scores); for Screen (variant relative to reference peptide, measured in the pTyr-Var library screen): sheet "EPHB1", variant seq vs reference seq, bacterial peptide display enrichment
c-Src kinase domain [2] = molecular target: T2, c-Src kinase domain; experiment: ADP-Quest continuous fluorimetric kinase assay (Michaelis-Menten parameters and initial rates); type: biochemical; conditions: c-Src kinase domain 10 nM, 100 μM ATP, 37 °C, three to five replicates, error = standard error of global Michaelis-Menten fit
c-Abl kinase domain = molecular target: T1, c-Abl kinase domain; experiment: pTyr-Var library bacterial peptide display kinase screen (enrichment scores); type: biochemical; conditions: fig5-data2, sheet "Abl"; Screen for the variant/reference peptide pair, pTyr-Var library
[3] = molecular target: human c-Src SH2 domain (residues 143-250) (human, UniProt P12931-1 143-250, biotin on the Avi tag (co-expression with the biotin ligase BirA)); experiment: fluorescence polarisation; competition: unlabeled phosphopeptide serially diluted against 30 nM fluorescent peptide and 240 nM (1.5 x KD) c-Src SH2; same buffer; 25 °C; cubic binding equation; conditions: both partners purified
[4] = value of the variant peptide against its reference peptide in the pTyr-Var library screen with Fer
[5] = effect of variant peptide relative to its reference peptide in the pTyr-Var library screen (enrichment scores)
[6] = variant peptide versus its reference peptide in the pTyr-Var library screen
[7] = effect of the variant peptide relative to its reference peptide in the pTyr-Var library screen
[8] = variant peptide relative to its reference peptide, pTyr-Var library screen enrichment
[9] = effect of the variant relative to its reference peptide in the pTyr-Var library screen

Row | Molecule | Screen (Fer kinase domain; [4]) | Screen (EPHB2 kinase domain; [5]) | Screen (EPHB1 kinase domain) | Screen (c-Src kinase domain [1]; [7]) | other results
1 | ADAGMYGVLPW [PLP1_Y207_R205G] | 1.986 | 1.359 | 0.87 |  | Screen (c-Src kinase domain [1]; [6]): -0.01805
2 | Ac-GAEEEIYGIFGAKKKG-NH2 [SrcTide (2014), previously reported c-Src consensus substrate (Deng et al., 2014)] |  |  |  |  | Km (c-Src kinase domain [2]): 7 ± 3 µM; kcat (c-Src kinase domain [2]): 1.8±0.1 s^–1
3 | ENGPFYASFPP [GDAP2_Y488_T489A_YF] | 0.7376 | 2.037 | 1.693 | 0.1608 | 
4 | FRSSLYSLMET [MYO5C_Y633_L634S] | 3.791 | 1.684 | 2.366 |  | Screen (c-Src kinase domain [1]; [6]): 2.978
5 | GRKTLYSFFSP [UNG_Y8_Q4R] |  |  |  |  | Screen (Fer kinase domain; [8]): -1.21; Screen (EPHB2 kinase domain; [9]): -1.763; Screen (c-Src kinase domain [1]; [6]): -1.198; Screen (variant relative to reference peptide, measured in the pTyr-Var library screen) (EPHB1 kinase domain): -1.828
6 | HLVLNYGVCFC [JAK2_Y613_V617F] |  | 0.8396 | 0.008865 |  | Screen (c-Abl kinase domain): 1.962
7 | HNMPIYEGFAL [ACTA1_Y168_V165M_YF] | 0.2696 | 0.1725 | 0.09959 | 0.3248 | Screen (c-Abl kinase domain): -1.455
8 | HNVPIYEGFGL [ACTA1_Y168_A172G_YF] | -0.2533 | 0.031 | 0.1073 | -0.3085 | Screen (c-Abl kinase domain): -0.8833
9 | INPIIYAFVVE [CCR5_Y297_G301V] | -1.367 | -1.294 | -1.262 | -0.9018 | 
10 | ISSLLYELLEE [TRPC6_Y896_R895L] |  |  |  |  | Screen (Fer kinase domain; [8]): 3.789; Screen (EPHB2 kinase domain; [9]): 3.042; Screen (c-Src kinase domain [1]; [6]): 3.086; Screen (variant relative to reference peptide, measured in the pTyr-Var library screen) (EPHB1 kinase domain): 3.527
11 | KQQEIYQEVTQ [CD209_Y239_L242V] | 1.048 | 0.564 | 0.2667 | -0.1121 | 
12 | LNGDRYFKGIV [DCX_Y64_R59L] | 2.021 | 1.457 | 2.112 |  | Screen (c-Abl kinase domain): 0.06367
13 | LTTEAYEWEPC [ELMOD3_Y61_R66C] | 1.258 | 1.193 | 1.595 | 2.164 | 
14 | NKFTTYLPWLP [C9orf24_Y126_R129W_YF] | 4.402 | 3.885 | 3.061 | 3.427 | 
15 | NNHGNYIVHLG [ETFDH_Y172_R175H] |  | 1.999 | 2.943 |  | 
16 | NREGVYTDFAP [TGFBI_Y537_V539D] |  |  |  |  | Screen (Fer kinase domain; [8]): -1.802; Screen (EPHB2 kinase domain; [9]): -1.696; Screen (c-Src kinase domain [1]; [6]): -0.2611; Screen (variant relative to reference peptide, measured in the pTyr-Var library screen) (EPHB1 kinase domain): -2.047
17 | NVVQEYERVII [NPHS2_Y131_K126N] | 0.1682 | -0.3645 | -0.6061 |  | 
18 | PFTRNYFVWAV [CYBA_Y87_R90W_YF] | 2.258 | 2.204 | 3.209 |  | Screen (c-Abl kinase domain): 0.4523
19 | PLEGEYFTLQI [TP53_Y327_D324E] |  |  |  |  | Screen (Fer kinase domain; [8]): 1.311; Screen (EPHB2 kinase domain; [9]): 1.812; Screen (c-Src kinase domain [1]; [6]): 0.9967; Screen (variant relative to reference peptide, measured in the pTyr-Var library screen) (EPHB1 kinase domain): 1.418
20 | QNTVDYFDLFG [PTPN11_Y62_G60V_YF] |  | -4.099 | -3.39 |  | Screen (c-Src kinase domain [1]; [6]): -1.317
21 | QPSALYEDRFL [ASS1_Y83_S79P_YF] | 0.05915 | 0.0303 | -0.4777 | -0.4742 | 
22 | QTPVLYTMLDH [MPZ_Y220_A221T] | 0.203 | -2.33 | -1.287 | -0.5854 | 
23 | RQSTLYSFFPT [MSH6_Y8_K13T] | 1.758 | 0.1224 | -0.1515 | -0.09567 | 
24 | VDTGVYAVPPP [BCAR1_Y410_S407T] | 0.101 | 0.0652 | 0.1474 | -0.01564 | 
25 | VVQGIYGFHHH [UFSP2_Y285_Y290H_YF] |  |  |  |  | Screen (Fer kinase domain; [8]): -0.4799; Screen (EPHB2 kinase domain; [9]): -2.017; Screen (c-Src kinase domain [1]; [6]): 0.2882; Screen (variant relative to reference peptide, measured in the pTyr-Var library screen) (EPHB1 kinase domain): -1.444
26 | Ac-QPIFEG[pY]ALPHAG-NH2 (SMILES CC[C@H](C)[C@H](NC(=O)[C@@H]1CCCN1C(=O)[C@H](CCC(N)=O)NC(C)=O)C(=O)N[C@@H](Cc1ccccc1)C(=O)N[C@@H](CCC(=O)O)C(=O)NCC(=O)N[C@@H](Cc1ccc(OP(=O)(O)O)cc1)C(=O)N[C@@H](C)C(=O)N[C@@H](CC(C)C)C(=O)N1CCC[C@H]1C(=O)N[C@@H](Cc1c[nH]cn1)C(=O)N[C@@H](C)C(=O)NCC(N)=O, source: synthetic peptide (synthesized in-house, RP-HPLC purified)) [ACTA1_Y171_YF phosphopeptide Ac-QPIFEG(pY)ALPHAG-NH2] |  |  |  |  | binding result [3]: binds
27 | Ac-QPIFEG[pY]GLPHAG-NH2 (SMILES CC[C@H](C)[C@H](NC(=O)[C@@H]1CCCN1C(=O)[C@H](CCC(N)=O)NC(C)=O)C(=O)N[C@@H](Cc1ccccc1)C(=O)N[C@@H](CCC(=O)O)C(=O)NCC(=O)N[C@@H](Cc1ccc(OP(=O)(O)O)cc1)C(=O)NCC(=O)N[C@@H](CC(C)C)C(=O)N1CCC[C@H]1C(=O)N[C@@H](Cc1c[nH]cn1)C(=O)N[C@@H](C)C(=O)NCC(N)=O, source: synthetic peptide (synthesized in-house, RP-HPLC purified)) [ACTA1_Y171_A172G_YF phosphopeptide Ac-QPIFEG(pY)GLPHAG-NH2] |  |  |  |  | binding result [3]: binds
28 | Ac-QVEGIG[pY]DFIPTG-NH2 (SMILES CC[C@H](C)[C@H](NC(=O)CNC(=O)[C@H](CCC(=O)O)NC(=O)[C@@H](NC(=O)[C@H](CCC(N)=O)NC(C)=O)C(C)C)C(=O)NCC(=O)N[C@@H](Cc1ccc(OP(=O)(O)O)cc1)C(=O)N[C@@H](CC(=O)O)C(=O)N[C@@H](Cc1ccccc1)C(=O)N[C@H](C(=O)N1CCC[C@H]1C(=O)N[C@H](C(=O)NCC(N)=O)[C@@H](C)O)[C@@H](C)CC, source: synthetic peptide (synthesized in-house, RP-HPLC purified)) [CBS_Y308 phosphopeptide Ac-QVEGIG(pY)DFIPTG-NH2] |  |  |  |  | binding result [3]: binds
29 | Ac-QVEGIS[pY]DFIPTG-NH2 (SMILES CC[C@H](C)[C@H](NC(=O)CNC(=O)[C@H](CCC(=O)O)NC(=O)[C@@H](NC(=O)[C@H](CCC(N)=O)NC(C)=O)C(C)C)C(=O)N[C@@H](CO)C(=O)N[C@@H](Cc1ccc(OP(=O)(O)O)cc1)C(=O)N[C@@H](CC(=O)O)C(=O)N[C@@H](Cc1ccccc1)C(=O)N[C@H](C(=O)N1CCC[C@H]1C(=O)N[C@H](C(=O)NCC(N)=O)[C@@H](C)O)[C@@H](C)CC, source: synthetic peptide (synthesized in-house, RP-HPLC purified)) [CBS_Y308_G307S phosphopeptide Ac-QVEGIS(pY)DFIPTG-NH2] |  |  |  |  | binding result [3]: binds
